Each block holds one compound with its values, some of them ahead of it. Calls of active or inactive are those of the source. The calls are words filed in the database; no cut-off is given here.
How the values were obtained:
[1] = Induction of singlet oxygen quantum yield under 808 nm light irradiation by DPBF based assay; format: functional
A549 [2] = test: Cytotoxicity against human A549 cells under 808 nm light irradiation by DCF-DA probe based analysis; format: functional, cell-based
[3] = Drug metabolism in human A549 cells assessed as NTR-mediated metabolism at 10 uM incubated for 30 mins by DAPI staining based CLSM analysis; format: ADME, cell-based; conditions: a549, 0.5 h
[4] = Drug metabolism in human HeLa cells assessed as NTR-mediated metabolism at 10 uM incubated for 30 mins by DAPI staining based CLSM analysis; format: ADME, cell-based; conditions: 0.5 h
A549 [5] = test: Induction of singlet oxygen production in human A549 cells under 808 nm light irradiation by DCF-DA probe based analysis; format: functional, cell-based
[6] = Toxicity in mouse model xenografted with human A549 cells assessed as damage in spleen at 300 uM, iv measured after 14 days by H and E staining based analysis; format: organism-based; conditions: 336 h, time 14 day
A549 [7] = test: Antitumor activity against human A549 cells xenografted in mouse model assessed as tumor growth inhibition at 300 uM, iv administered every other day under laser light irradiation for 14 days; format: functional, organism-based; conditions: time 14.0 day
[8] = Drug localization in human A549 cells assessed as co-localization co-efficient at 10 uM by LysoTracker Green DND-2 dye based analysis; format: ADME, cell-based; conditions: a549, 10 µM
[9] = Toxicity in mouse model xenografted with human A549 cells assessed as damage in heart at 300 uM, iv measured after 14 days by H and E staining based analysis; format: organism-based; conditions: 336 h, time 14 day
4T1 [10] = test: Cytotoxicity against mouse 4T1 cells assessed as survival rate under absence of light upto 10 uM measured after 12 hrs by MTT assay relative to control; format: functional; conditions: up to 10 µM
A549 [11] = test: Inhibition of cell migration in human A549 cells under 808 nm light irradiation measured for 18 hrs by wound healing assay; format: functional, cell-based
[12] = Toxicity in mouse model xenografted with human A549 cells assessed as body weight change at 300 uM, iv measured for 14 days; format: organism-based; conditions: 336 h, time 14 day
A549 [13] = test: Cytotoxicity against human A549 cells assessed as survival rate under laser light irradiation at 2.5 uM measured after 12 hrs by MTT assay relative to control; format: functional; conditions: A549, light or radiation study, read-out: Survival
A549 [14] = test: Induction of apoptosis in human A549 cells under 808 nm light irradiation by Annexin V-FITC/PI staining based flow cytometry; format: functional, cell-based
4T1 [15] = test: Cytotoxicity against mouse 4T1 cells assessed as survival rate under laser light irradiation at 10 uM measured after 12 hrs by MTT assay relative to control; format: functional; conditions: 4T1, light or radiation study, read-out: Survival
4T1 [16] = test: Cytotoxicity against mouse 4T1 cells assessed as survival rate under laser light irradiation measured after 12 hrs by MTT assay; format: functional, cell-based; conditions: dose <= 10.0 µM
[17] = Toxicity in mouse model xenografted with human A549 cells assessed as damage in lung at 300 uM, iv measured after 14 days by H and E staining based analysis; format: organism-based; conditions: 336 h, time 14 day
A549 [18] = test: Antitumor activity against human A549 cells xenografted in mouse model assessed as cellular structural damage at 300 uM, iv administered every other day under laser light irradiation measured after 14 days by H and E staining based analysis; format: functional, organism-based; conditions: time 14.0 day
A549 [19] = test: Antitumor activity against human A549 cells xenografted in mouse model assessed as tumor disappearance at 300 uM, iv administered every other day under laser light irradiation for 14 days relative to control; format: functional; conditions: time 14 day
HeLa [20] = test: Cytotoxicity against human HeLa cells assessed as survival rate under laser light irradiation at 2.5 uM measured after 12 hrs by MTT assay relative to control; format: functional; conditions: light or radiation study, read-out: Survival
A549 [21] = test: Antitumor activity against human A549 cells xenografted in mouse model assessed as presence of necrotic cells at 300 uM, iv administered every other day under laser light irradiation measured after 14 days by H and E staining based analysis; format: functional, organism-based; conditions: time 14.0 day
A549 [22] = test: Antitumor activity against human A549 cells xenografted in mouse model assessed as decrease in tumor re-occurence at 300 uM, iv administered every other day under laser light irradiation measured after 14 days during observation period; format: functional, organism-based; conditions: time 14.0 day
4T1 [23] = test: Cytotoxicity against mouse 4T1 cells assessed as survival rate under laser light irradiation at 2.5 uM measured after 12 hrs by MTT assay relative to control; format: functional; conditions: 4T1, light or radiation study, read-out: Survival
HeLa [24] = test: Cytotoxicity against human HeLa cells assessed as survival rate under laser light irradiation measured after 12 hrs by MTT assay; format: functional, cell-based; conditions: dose <= 10.0 µM
[25] = Drug uptake in human A549 cells xenografted in mouse model at 300 uM, iv measured after 2 hrs by fluorescence based imaging analysis; format: ADME, organism-based; conditions: in vivo
[26] = Drug metabolism in human A549 cells assessed as NTR-mediated metabolism under 10 to 20 percent oxygen at 10 uM incubated for 30 mins by confocal fluorescence imaging based analysis; format: ADME, cell-based; conditions: a549, 0.5 h
A549 [27] = test: Cytotoxicity against human A549 cells assessed as survival rate under absence of light upto 10 uM measured after 12 hrs by MTT assay relative to control; format: functional; conditions: up to 10 µM
[28] = Drug localization in human HeLa cells assessed as co-localization co-efficient at 10 uM by LysoTracker Green DND-2 dye based analysis; format: ADME, cell-based
[29] = Toxicity in mouse model xenografted with human A549 cells assessed as damage in kidney at 300 uM, iv measured after 14 days by H and E staining based analysis; format: organism-based; conditions: 336 h, time 14 day
[30] = Toxicity in mouse model xenografted with human A549 cells assessed as damage in liver at 300 uM, iv measured after 14 days by H and E staining based analysis; format: organism-based; conditions: 336 h, time 14 day
[31] = Drug metabolism in human A549 cells assessed as NTR-mediated metabolism under 5 percent oxygen at 10 uM incubated for 30 mins by DAPI staining based CLSM analysis; format: ADME, cell-based; conditions: a549, 0.5 h
[32] = Drug metabolism assessed as NTR(unknown origin)-mediated metabolism under 745 nm light irradiation by fluorescence based analysis; format: ADME; conditions: human
A549 [33] = test: Cytotoxicity against human A549 cells assessed as survival rate under laser light irradiation measured after 12 hrs by MTT assay; format: functional, cell-based; conditions: dose <= 10.0 µM
HeLa [34] = test: Cytotoxicity against human HeLa cells assessed as survival rate under absence of light upto 10 uM measured after 12 hrs by MTT assay relative to control; format: functional; conditions: up to 10 µM
HeLa [35] = test: Cytotoxicity against human HeLa cells assessed as survival rate under laser light irradiation at 10 uM measured after 12 hrs by MTT assay relative to control; format: functional; conditions: light or radiation study, read-out: Survival
A549 [36] = test: Cytotoxicity against human A549 cells assessed as survival rate under laser light irradiation at 10 uM measured after 12 hrs by MTT assay relative to control; format: functional; conditions: A549, light or radiation study, read-out: Survival
[37] = Drug uptake in mouse model xenografted with human A549 cells at 300 uM, iv measured after 90 mins by fluorescence based imaging analysis; format: ADME, organism-based; conditions: in vivo, 1.5 h
A549 [38] = test: Cytotoxicity against NAC-treated human A549 cells by DCF-DA probe based analysis; format: functional, cell-based
A549 [39] = test: Induction of singlet oxygen production in human A549 cells by DCF-DA probe based analysis; format: functional, cell-based
A549 [40] = test: Cytotoxicity against human A549 cells under near-infra red light irradiation; format: functional, cell-based
[41] = Induction of singlet oxygen quantum yield assessed as decrease in absorption signal under 415 nm light irradiation measured after 15 mins by DPBF based assay; format: functional; design: scale not given: the % may be the effect or the level left
[42] = Induction of singlet oxygen quantum yield under 808 nm light irradiation in presence of NTR by DPBF based assay; format: functional
[43] = Photostability of compound upto 2 W/cm2 measured for 8 mins; format: physicochemical
[44] = Drug metabolism in human L02 cells assessed as NTR-mediated metabolism at 10 uM incubated for 30 mins by DAPI staining based CLSM analysis; format: ADME, cell-based; conditions: l02, 0.5 h

Compound: CC[N+]1=C(/C=C/C2=C3Oc4cc(O)ccc4C=C3CCC2)C(C)(C)c2c1ccc1ccccc21
Activity [1]: 0.002

Drug metabolism [3]: metabolite_notdetected
Drug metabolism [4]: metabolite_notdetected
Compound: O=c1oc2ccccc2c(O)c1Cc1c(O)c2ccccc2oc1=O [DICUMAROL]
Activity (A549 [2]): inactive
Activity (A549 [5]): inactive

Compound: CC[N+]1=C(/C=C/C2=C3Oc4cc(N)ccc4C=C3CCC2)C(C)(C)c2ccccc21
Activity [1]: 0.005

Compound: CC[N+]1=C(/C=C/C2=C3Oc4cc(N(C)C(=O)OCc5ccc([N+](=O)[O-])cc5)ccc4C=C3CCC2)C(C)(C)c2c1ccc1ccccc21.I
Activity [6]: Non-toxic
inhibition (A549 [7]): Active
Activity [8]: 0.9
Activity (A549 [2]): Active
Activity [9]: Non-toxic
Survival (4T1 [10]): >85%
inhibition (A549 [11]): Active
Activity [12]: Non-toxic
viability at 2.5 µM (A549 [13]): < 80%
Activity (A549 [14]): Active
viability at 10 µM (4T1 [15]): < 40%
Activity (4T1 [16]): Dose-dependent-effect
Activity [17]: Non-toxic
Activity (A549 [18]): Active
Activity (A549 [19]): ~100%
viability at 2.5 µM (HeLa [20]): < 80%
Activity (A549 [21]): Active
Activity (A549 [22]): Active
viability at 2.5 µM (4T1 [23]): < 80%
Activity (HeLa [24]): Dose-dependent-effect
Drug uptake [25]: Active
Drug metabolism [26]: metabolite_notdetected
Survival (A549 [27]): >85%
Activity [28]: 0.88
Activity [29]: Non-toxic
Activity [30]: Non-toxic
Drug metabolism [31]: metabolite_detected
Drug metabolism [32]: metabolite_detected
Activity (A549 [5]): Active
Activity (A549 [33]): Dose-dependent-effect
Survival (HeLa [34]): >85%
viability at 10 µM (HeLa [35]): < 40%
viability at 10 µM (A549 [36]): < 40%
Drug uptake [37]: Active

Compound: CC[N+]1=C(/C=C/C2=C3Oc4cc(NC)ccc4C=C3CCC2)C(C)(C)c2ccccc21
Activity [1]: 0.005

Compound: CC[N+]1=C(/C=C/C2=C3Oc4cc(O)ccc4C=C3CCC2)C(C)(C)c2ccccc21
Activity [1]: 0.002

Compound: CC[N+]1=C(/C=C/C2=C3Oc4cc(N)ccc4C=C3CCC2)C(C)(C)c2c1ccc1ccccc21
Activity [1]: 0.008

Stability [43]: Stable
Compound: CC[N+]1=C(/C=C/C2=C3Oc4cc(NC)ccc4C=C3CCC2)C(C)(C)c2c1ccc1ccccc21.[I-]
Activity [1]: 0.059
Activity (A549 [38]): inactive
Activity (A549 [14]): Active
Activity (A549 [39]): Active
Activity (A549 [40]): Active
Activity [41]: 74.7%
Activity [42]: inactive

Drug metabolism [44]: metabolite_detected
Compound: COBALTOUS CHLORIDE

— ChEMBL document CHEMBL6087434, “An Activatable Heavy-Atom-Free Upconversion Photosensitizer for Targeted Imaging and Treatment of Tumors” (J Med Chem, 2024)
